Experimental data: ChEMBL document CHEMBL3885861, “Open TG-GATES”

Species: Rattus norvegicus
Test: Open TG-GATES - Regimen: Single
Format: toxicity, organism-based, Sprague-Dawley
Set-up: regimen Single, gender Male, age 6 weeks
Conditions: in vivo, po, 0 mg/kg, route gavage, dose level Control; for APTT / Bas / Eos / Fbg / Hb / Ht / Lym / MCH / MCHC / MCV / Mono / Neu / PT / Plat / RBC / Ret / WBC: tissue Blood; for KIDNEY_L / KIDNEY_R / KIDNEY_TOTAL: tissue Kidney; for LIVER: tissue Liver; for A/G / ALP / ALT / AST / BUN / CRE / Ca / Cl / DBIL / GLC / IP / K / LDH / Na / PL / RALB / TBIL / TC / TG / TP / gamma-GTP: tissue Plasma

C[C@H]1C(=O)O[C@@H]2CCN3CC=C(COC(=O)[C@](C)(O)[C@]1(C)O)[C@H]23 [MONOCROTALINE]
TERMINAL_BW (3 h): 217.7 g | APTT (3 h): 20.3 s | Bas (3 h): 0% | Eos (3 h): 0.8% | Fbg (3 h): 316 mg/dL | Hb (3 h): 12.9 g/dL | Ht (3 h): 37.7% | Lym (3 h): 76.4% | MCH (3 h): 21.8 pg | MCHC (3 h): 34.2% | MCV (3 h): 63.8 fL | Mono (3 h): 3.2% | Neu (3 h): 19% | PT (3 h): 16.8 s | Plat (3 h): 116.9 x10_4/uL | RBC (3 h): 591.6 x10_4/ul | Ret (3 h): 9.3% | WBC (3 h): 86.4 x10_2/uL | KIDNEY_L (3 h): 1 g | KIDNEY_R (3 h): 1 g | KIDNEY_TOTAL (3 h): 2 g | LIVER (3 h): 10.4 g | A/G (3 h): 1.3 | ALP (3 h): 1563.2 IU/L | ALT (3 h): 38 IU/L | AST (3 h): 66.8 IU/L | BUN (3 h): 13.4 mg/dL | CRE (3 h): 0.2 mg/dL | Ca (3 h): 10.7 mg/dL | Cl (3 h): 106.6 meq/L | DBIL (3 h): 0.002 mg/dL | GLC (3 h): 185.6 mg/dL | IP (3 h): 8.3 mg/dL | K (3 h): 4 meq/L | LDH (3 h): 161 IU/L | Na (3 h): 142.6 meq/L | PL (3 h): 141.8 mg/dL | RALB (3 h): 3.1 g/dL | TBIL (3 h): 0.028 mg/dL | TC (3 h): 78.2 mg/dL | TG (3 h): 58.6 mg/dL | TP (3 h): 5.4 g/dL | gamma-GTP (3 h): 1 IU/L | TERMINAL_BW (6 h): 200.2 g | APTT (6 h): 20.2 s | Bas (6 h): 0% | Eos (6 h): 1% | Fbg (6 h): 316 mg/dL | Hb (6 h): 13.4 g/dL | Ht (6 h): 39.5% | Lym (6 h): 81% | MCH (6 h): 21.5 pg | MCHC (6 h): 33.9% | MCV (6 h): 63.2 fL | Mono (6 h): 2.8% | Neu (6 h): 14.8% | PT (6 h): 16.2 s | Plat (6 h): 112.4 x10_4/uL | RBC (6 h): 626.4 x10_4/ul | Ret (6 h): 7.8% | WBC (6 h): 94 x10_2/uL | KIDNEY_L (6 h): 0.9 g | KIDNEY_R (6 h): 0.9 g | KIDNEY_TOTAL (6 h): 1.9 g | LIVER (6 h): 8.5 g | A/G (6 h): 1.3 | ALP (6 h): 1365.8 IU/L | ALT (6 h): 37.6 IU/L | AST (6 h): 71.6 IU/L | BUN (6 h): 11.4 mg/dL | CRE (6 h): 0.1 mg/dL | Ca (6 h): 10.6 mg/dL | Cl (6 h): 106.8 meq/L | DBIL (6 h): 0.004 mg/dL | GLC (6 h): 176 mg/dL | IP (6 h): 9 mg/dL | K (6 h): 4.2 meq/L | LDH (6 h): 230.6 IU/L | Na (6 h): 142.6 meq/L | PL (6 h): 132.4 mg/dL | RALB (6 h): 3.1 g/dL | TBIL (6 h): 0.026 mg/dL | TC (6 h): 75.2 mg/dL | TG (6 h): 56 mg/dL | TP (6 h): 5.5 g/dL | gamma-GTP (6 h): 1.2 IU/L | TERMINAL_BW (9 h): 207.2 g | APTT (9 h): 19.8 s | Bas (9 h): 0% | Eos (9 h): 1% | Fbg (9 h): 300.8 mg/dL | Hb (9 h): 13.3 g/dL | Ht (9 h): 38.8% | Lym (9 h): 73% | MCH (9 h): 21.4 pg | MCHC (9 h): 34.2% | MCV (9 h): 62.7 fL | Mono (9 h): 2.6% | Neu (9 h): 22.4% | PT (9 h): 16.2 s | Plat (9 h): 110.9 x10_4/uL | RBC (9 h): 618.6 x10_4/ul | Ret (9 h): 8.7% | WBC (9 h): 92.3 x10_2/uL | KIDNEY_L (9 h): 0.9 g | KIDNEY_R (9 h): 1 g | KIDNEY_TOTAL (9 h): 1.9 g | LIVER (9 h): 8.6 g | A/G (9 h): 1.3 | ALP (9 h): 1373.4 IU/L | ALT (9 h): 38 IU/L | AST (9 h): 67.8 IU/L | BUN (9 h): 10.4 mg/dL | CRE (9 h): 0.2 mg/dL | Ca (9 h): 10.4 mg/dL | Cl (9 h): 106.8 meq/L | DBIL (9 h): 0.004 mg/dL | GLC (9 h): 174.2 mg/dL | IP (9 h): 9.1 mg/dL | K (9 h): 4.1 meq/L | LDH (9 h): 184.2 IU/L | Na (9 h): 142 meq/L | PL (9 h): 137 mg/dL | RALB (9 h): 3.1 g/dL | TBIL (9 h): 0.028 mg/dL | TC (9 h): 83.2 mg/dL | TG (9 h): 50.4 mg/dL | TP (9 h): 5.4 g/dL | gamma-GTP (9 h): 1 IU/L | TERMINAL_BW (24 h): 221.9 g | APTT (24 h): 22 s | Bas (24 h): 0% | Eos (24 h): 1% | Fbg (24 h): 299 mg/dL | Hb (24 h): 12.9 g/dL | Ht (24 h): 37.9% | Lym (24 h): 83% | MCH (24 h): 20.8 pg | MCHC (24 h): 34.1% | MCV (24 h): 61.1 fL | Mono (24 h): 2.8% | Neu (24 h): 12.6% | PT (24 h): 16.5 s | Plat (24 h): 119.4 x10_4/uL | RBC (24 h): 620.4 x10_4/ul | Ret (24 h): 8.4% | WBC (24 h): 85.2 x10_2/uL | KIDNEY_L (24 h): 1 g | KIDNEY_R (24 h): 1 g | KIDNEY_TOTAL (24 h): 2 g | LIVER (24 h): 10.5 g | A/G (24 h): 1.3 | ALP (24 h): 1787.6 IU/L | ALT (24 h): 44.4 IU/L | AST (24 h): 74 IU/L | BUN (24 h): 18.4 mg/dL | CRE (24 h): 0.2 mg/dL | Ca (24 h): 10.7 mg/dL | Cl (24 h): 105 meq/L | DBIL (24 h): 0.006 mg/dL | GLC (24 h): 187.6 mg/dL | IP (24 h): 6.8 mg/dL | K (24 h): 4.2 meq/L | LDH (24 h): 227.2 IU/L | Na (24 h): 141.2 meq/L | PL (24 h): 150.4 mg/dL | RALB (24 h): 3.2 g/dL | TBIL (24 h): 0.008 mg/dL | TC (24 h): 78.2 mg/dL | TG (24 h): 101.6 mg/dL | TP (24 h): 5.6 g/dL | gamma-GTP (24 h): 1 IU/L
